In ChEMBL document CHEMBL3421549, “2-Aryl-3-methyloctahydrophenanthrene-2,3,7-triols as potent dissociated glucocorticoid receptor agonists” (J Med Chem, 2015) one finds IC50 data, which are given here for 24 compounds.

Broadly, the IC50 is the concentration that inhibits the measured activity by half.

For assay [1], the target named is T1, Glucocorticoid receptor (Homo sapiens, UniProt P04150).
T1 sequence (P04150 whole entry): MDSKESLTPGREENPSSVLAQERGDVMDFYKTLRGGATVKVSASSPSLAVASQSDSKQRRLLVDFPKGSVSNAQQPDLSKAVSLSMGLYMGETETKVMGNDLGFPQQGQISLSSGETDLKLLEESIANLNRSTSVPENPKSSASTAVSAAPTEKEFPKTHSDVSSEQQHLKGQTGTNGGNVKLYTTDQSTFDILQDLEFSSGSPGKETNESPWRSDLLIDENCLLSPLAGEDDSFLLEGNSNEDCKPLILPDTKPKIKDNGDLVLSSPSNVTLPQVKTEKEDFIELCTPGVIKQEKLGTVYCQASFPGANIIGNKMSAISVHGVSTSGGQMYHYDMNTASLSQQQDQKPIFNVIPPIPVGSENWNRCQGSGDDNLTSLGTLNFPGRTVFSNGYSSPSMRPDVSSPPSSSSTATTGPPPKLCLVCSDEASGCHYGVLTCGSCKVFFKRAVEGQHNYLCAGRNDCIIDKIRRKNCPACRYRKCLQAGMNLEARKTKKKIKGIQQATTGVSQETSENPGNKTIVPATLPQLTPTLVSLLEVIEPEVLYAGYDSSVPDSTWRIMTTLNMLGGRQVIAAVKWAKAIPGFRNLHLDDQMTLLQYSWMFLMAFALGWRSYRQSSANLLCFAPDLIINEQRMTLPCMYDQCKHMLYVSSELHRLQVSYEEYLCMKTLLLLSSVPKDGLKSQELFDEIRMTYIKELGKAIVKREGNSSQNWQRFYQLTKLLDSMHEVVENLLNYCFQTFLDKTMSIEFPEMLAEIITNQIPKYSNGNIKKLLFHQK
Kind of assay: Transrepression activity at glucocorticoid receptor in human SW1353 cells assessed as repression of IL-1-induced MMP-13 production after 24 hrs by ELISA. Type of assay: cell-based. For orientation: ELISA stands for enzyme-linked immunosorbent assay.

Assay [2] addresses T1, Glucocorticoid receptor.
Description: Binding affinity to human GR
The target of assay [3] is T1, Glucocorticoid receptor. This is another data set of the same source.
Description: Transrepression activity at glucocorticoid receptor in human whole blood assessed as repression of IL-1-induced TNF-alpha production after 4 hrs by ELISA
A further assay addresses T2, Androgen receptor (Homo sapiens, UniProt P10275).
T2 sequence (P10275 whole entry): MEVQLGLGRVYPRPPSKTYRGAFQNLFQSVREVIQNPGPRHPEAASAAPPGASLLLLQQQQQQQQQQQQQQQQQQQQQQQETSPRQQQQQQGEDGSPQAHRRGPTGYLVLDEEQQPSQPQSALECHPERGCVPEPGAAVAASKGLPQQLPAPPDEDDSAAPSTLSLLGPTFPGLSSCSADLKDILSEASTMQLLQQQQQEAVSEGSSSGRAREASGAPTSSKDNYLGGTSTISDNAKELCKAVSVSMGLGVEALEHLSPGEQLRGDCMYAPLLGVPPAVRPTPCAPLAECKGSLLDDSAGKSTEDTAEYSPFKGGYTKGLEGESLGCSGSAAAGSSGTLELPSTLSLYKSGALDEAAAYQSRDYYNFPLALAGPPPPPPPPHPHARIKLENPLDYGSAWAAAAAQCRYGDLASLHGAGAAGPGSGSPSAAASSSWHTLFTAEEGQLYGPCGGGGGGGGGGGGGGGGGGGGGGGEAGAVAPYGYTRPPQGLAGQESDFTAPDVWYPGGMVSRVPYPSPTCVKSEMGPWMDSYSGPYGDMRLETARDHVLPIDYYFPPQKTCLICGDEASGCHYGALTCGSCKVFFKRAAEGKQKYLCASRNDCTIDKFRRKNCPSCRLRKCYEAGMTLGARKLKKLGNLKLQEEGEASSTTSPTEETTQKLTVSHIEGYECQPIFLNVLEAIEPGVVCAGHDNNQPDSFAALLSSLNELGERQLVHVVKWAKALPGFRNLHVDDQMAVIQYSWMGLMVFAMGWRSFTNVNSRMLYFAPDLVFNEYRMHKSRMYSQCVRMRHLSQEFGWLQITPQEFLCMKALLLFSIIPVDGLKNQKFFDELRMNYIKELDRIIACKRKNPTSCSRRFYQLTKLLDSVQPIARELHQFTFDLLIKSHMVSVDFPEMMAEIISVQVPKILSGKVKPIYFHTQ
Briefly: Binding affinity to human AR.

For another assay, the target named is T3, Progesterone receptor (Homo sapiens, UniProt P06401).
T3 sequence (P06401 whole entry): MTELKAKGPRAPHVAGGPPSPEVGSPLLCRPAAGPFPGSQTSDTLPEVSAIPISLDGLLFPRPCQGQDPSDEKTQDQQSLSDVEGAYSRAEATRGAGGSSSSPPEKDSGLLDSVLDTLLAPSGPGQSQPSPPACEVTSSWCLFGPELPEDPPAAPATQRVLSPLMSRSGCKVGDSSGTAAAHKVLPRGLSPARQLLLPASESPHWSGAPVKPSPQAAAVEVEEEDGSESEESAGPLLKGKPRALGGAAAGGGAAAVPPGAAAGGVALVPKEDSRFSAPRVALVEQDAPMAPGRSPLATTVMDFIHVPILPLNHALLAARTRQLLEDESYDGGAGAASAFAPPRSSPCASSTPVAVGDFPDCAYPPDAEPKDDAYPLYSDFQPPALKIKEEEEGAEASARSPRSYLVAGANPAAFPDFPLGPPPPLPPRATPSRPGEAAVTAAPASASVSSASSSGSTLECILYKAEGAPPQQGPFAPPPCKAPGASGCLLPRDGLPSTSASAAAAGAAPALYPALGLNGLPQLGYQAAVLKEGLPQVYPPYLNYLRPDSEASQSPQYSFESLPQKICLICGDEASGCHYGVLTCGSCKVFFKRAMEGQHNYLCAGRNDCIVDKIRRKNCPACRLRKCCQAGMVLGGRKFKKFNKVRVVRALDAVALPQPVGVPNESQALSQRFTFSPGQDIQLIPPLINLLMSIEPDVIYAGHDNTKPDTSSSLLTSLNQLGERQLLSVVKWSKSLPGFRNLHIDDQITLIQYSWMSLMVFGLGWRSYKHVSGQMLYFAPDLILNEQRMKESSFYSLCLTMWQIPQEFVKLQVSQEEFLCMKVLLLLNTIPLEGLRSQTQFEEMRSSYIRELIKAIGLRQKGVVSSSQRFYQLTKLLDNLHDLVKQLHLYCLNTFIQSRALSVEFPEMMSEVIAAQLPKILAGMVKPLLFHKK
Briefly: Binding affinity to human PR.

Another assay deals with T4, Estrogen receptor (Homo sapiens, UniProt P03372).
T4 sequence (P03372 whole entry): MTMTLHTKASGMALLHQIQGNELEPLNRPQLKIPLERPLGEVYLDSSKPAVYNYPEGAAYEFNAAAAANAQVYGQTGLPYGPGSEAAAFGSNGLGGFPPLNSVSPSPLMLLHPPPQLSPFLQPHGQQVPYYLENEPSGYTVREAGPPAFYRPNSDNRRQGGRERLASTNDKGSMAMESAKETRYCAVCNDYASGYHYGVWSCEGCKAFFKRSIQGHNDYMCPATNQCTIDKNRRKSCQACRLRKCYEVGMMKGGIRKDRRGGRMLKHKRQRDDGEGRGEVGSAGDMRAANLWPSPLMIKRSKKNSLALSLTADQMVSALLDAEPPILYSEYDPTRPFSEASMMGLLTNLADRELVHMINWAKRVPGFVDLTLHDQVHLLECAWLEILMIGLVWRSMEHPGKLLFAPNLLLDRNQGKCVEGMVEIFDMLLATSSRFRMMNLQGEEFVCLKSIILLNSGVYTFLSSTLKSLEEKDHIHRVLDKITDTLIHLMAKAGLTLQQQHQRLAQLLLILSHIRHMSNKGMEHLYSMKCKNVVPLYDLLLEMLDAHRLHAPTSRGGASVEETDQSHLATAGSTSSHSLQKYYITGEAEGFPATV
Briefly: Binding affinity to human ER-alpha.

The target in the next assay is Estrogen receptor beta (Homo sapiens, UniProt Q92731). Briefly: Binding affinity to human ER-beta.
Estrogen receptor beta, sequence (Q92731 whole entry): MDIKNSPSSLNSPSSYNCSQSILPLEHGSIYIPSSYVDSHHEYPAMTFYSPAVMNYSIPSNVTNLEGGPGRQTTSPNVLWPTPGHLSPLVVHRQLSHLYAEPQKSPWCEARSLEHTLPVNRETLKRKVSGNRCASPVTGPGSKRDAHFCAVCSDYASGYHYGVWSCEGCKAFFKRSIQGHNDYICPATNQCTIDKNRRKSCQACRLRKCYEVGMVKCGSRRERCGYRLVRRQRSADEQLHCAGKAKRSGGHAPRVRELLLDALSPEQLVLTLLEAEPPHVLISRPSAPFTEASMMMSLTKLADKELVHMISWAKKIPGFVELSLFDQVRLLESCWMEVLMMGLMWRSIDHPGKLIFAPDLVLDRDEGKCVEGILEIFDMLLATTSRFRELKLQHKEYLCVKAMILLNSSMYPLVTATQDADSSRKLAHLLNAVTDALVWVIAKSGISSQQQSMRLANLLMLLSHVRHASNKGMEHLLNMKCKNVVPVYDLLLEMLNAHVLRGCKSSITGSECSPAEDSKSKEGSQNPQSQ

In the case of `CC[C@@]12C[C@@H](O)[C@](O)(c3ccccc3)C[C@H]1CCc1cc(O)ccc12`, on Glucocorticoid receptor [1], the IC50 was more than 5000 nM.
With `CC[C@@]12C[C@@](C)(O)[C@](O)(c3cccnc3)C[C@H]1CCc1cc(O)ccc12`, the IC50 on Glucocorticoid receptor [1] was 80 nM; against Glucocorticoid receptor [2], 22 nM.
On to `CC[C@@]12C[C@@](C)(O)[C@](O)(c3ccccc3)C[C@H]1C=Cc1cc(O)ccc12`, for which the figures for the IC50 at Glucocorticoid receptor [1], against Glucocorticoid receptor [2] and against Glucocorticoid receptor [3] were 4 nM, 0.3 nM and 400 nM, respectively.
`CC[C@@]12C[C@@](C)(O)[C@](O)(c3ccncc3)C[C@H]1CCc1cc(O)ccc12`: the IC50 on Glucocorticoid receptor [1] worked out at 100 nM; at Glucocorticoid receptor [2] it was 9.1 nM.
In the case of `C=C[C@@]1(O)C[C@@]2(CC)c3ccc(O)cc3CC[C@@H]2C[C@@]1(O)c1ccccc1`, the figures for the IC50 on Glucocorticoid receptor [1] and at Glucocorticoid receptor [2] were more than 5000 nM and 5.2 nM, respectively.
The matching figures for `C=CC[C@]1(O)C[C@H]2CCc3cc(O)ccc3[C@]2(CC)C[C@@]1(C)O`: more than 5000 nM and 35.4 nM.
On to `C/C=C/[C@]1(O)C[C@H]2CCc3cc(O)ccc3[C@]2(CC)C[C@@]1(C)O` (mixture of isomers), for which the figures for the half-maximal inhibitory concentration (IC50) at Glucocorticoid receptor [1] and against Glucocorticoid receptor [2] were 6 nM and 2.1 nM, respectively.
Take `CC[C@@]12C[C@@](C)(O)[C@](O)(c3ccccc3)C[C@H]1CCc1cc(O)ccc12`: the IC50 at Glucocorticoid receptor [1] was 3.5 nM; at Androgen receptor, 300 nM; at Progesterone receptor it was 321 nM; at Estrogen receptor, more than 3.2 µM; on Estrogen receptor beta, more than 3.2 µM; against Glucocorticoid receptor [2], 0.6 nM. For the same compound, the IC50 on Glucocorticoid receptor [3] was found to be 109 nM.
On to `CC[C@@]12C[C@@](C)(O)[C@](O)(c3ccccn3)C[C@H]1CCc1cc(O)ccc12`, for which the IC50 on Glucocorticoid receptor [1] is 1.5 nM; against Glucocorticoid receptor [2], 1.5 nM; against Glucocorticoid receptor [3], 167 nM.
Turning to `CC[C@@]12C[C@](O)(CC)[C@](O)(c3ccccc3)C[C@H]1CCc1cc(O)ccc12`, the results for the concentration for half-maximal inhibition (IC50) on Glucocorticoid receptor [1] and at Glucocorticoid receptor [2] were 6 nM and 1.2 nM, respectively.
`CCC[C@]1(O)C[C@H]2CCc3cc(O)ccc3[C@]2(CC)C[C@@]1(C)O`: the values for the IC50 at Glucocorticoid receptor [1] and at Glucocorticoid receptor [2] were more than 5000 nM and 20.1 nM, respectively.
For the compound `C=C[C@]1(O)C[C@H]2CCc3cc(O)ccc3[C@]2(CC)C[C@@]1(C)O` (mixture of isomers), the 50% inhibitory concentration (IC50) turned out to be 650 nM at Glucocorticoid receptor [1] and 12.1 nM against Glucocorticoid receptor [2].
In the case of `CC[C@@]12C[C@@](C)(O)[C@](O)(c3nccs3)C[C@H]1CCc1cc(O)ccc12`, the results for the IC50 on Glucocorticoid receptor [1], against Glucocorticoid receptor [2] and against Glucocorticoid receptor [3] were 1.5 nM, 0.79 nM and 83 nM, respectively.
In the case of `CC[C@@]12C[C@@](C)(O)[C@@](C)(O)C[C@H]1CCc1cc(O)ccc12`, half-maximal inhibition on Glucocorticoid receptor [2] (IC50) required 211 nM.
For `CC[C@@]12CC[C@](O)(c3ccccc3)C[C@H]1CCc1cc(O)ccc12`, the IC50 on Glucocorticoid receptor [1] was more than 5000 nM.
In the case of `CC[C@@]12C[C@@](C)(O)[C@](O)(c3ccccc3)C[C@H]1CC(=O)c1cc(O)ccc12`, the IC50 at Glucocorticoid receptor [1] was determined as 5 nM; on Glucocorticoid receptor [2], 2.5 nM; against Glucocorticoid receptor [3], 72.5 nM.
For `CC[C@@]12C[C@@](C)(O)[C@](O)(c3ccccc3)C[C@H]1C[C@@H](O)c1cc(O)ccc12`, the values for the IC50 at Glucocorticoid receptor [1] and against Glucocorticoid receptor [2] were more than 5000 nM and 79 nM, respectively.
For the compound `CC[C@@]12C[C@@](C)(O)[C@](O)(c3ccccc3)C[C@H]1C=C(C)c1cc(O)ccc12`, the IC50 at Glucocorticoid receptor [1] was 0.6 nM; against Glucocorticoid receptor [2], 0.67 nM; against Glucocorticoid receptor [3] it was 43 nM.
As for `CC[C@@]12C[C@@](C)(O)[C@](O)(c3ccc(C)cc3)C[C@H]1CCc1cc(O)ccc12`, the IC50 at Glucocorticoid receptor [1] came out at 12 nM; against Glucocorticoid receptor [2], 1.3 nM.
Regarding `Cc1noc(=O)c2ccc(NC(=O)C(O)(CC3(c4cc(F)ccc4Cl)CCC3)C(F)(F)F)cc12` (racemic), the IC50 at Glucocorticoid receptor [1] is 7.5 nM; at Androgen receptor, 40 nM; on Progesterone receptor it was 0.2 nM; at Estrogen receptor it was more than 100 µM; on Estrogen receptor beta, more than 100 µM; on Glucocorticoid receptor [2], 0.4 nM. The same compound displayed an IC50 on Glucocorticoid receptor [3] of 1000 nM.
For the compound `CC[C@@]12C[C@](C)(O)[C@](O)(c3ccccc3)C[C@H]1CCc1cc(O)ccc12`, the IC50 at Glucocorticoid receptor [1] is more than 5000 nM; on Glucocorticoid receptor [2] it was 38 nM.
The matching figures for `CC#C[C@]1(O)C[C@H]2CCc3cc(O)ccc3[C@]2(CC)C[C@@]1(C)O`: 1.9 nM and 1.5 nM.
The matching figures for `CC[C@@]12C[C@@](C)(O)[C@](O)(CC)C[C@H]1CCc1cc(O)ccc12` (mixture of isomers): more than 5000 nM and 47 nM.
With `CC[C@@]12C[C@@](C)(O)[C@](O)(c3ccccc3)C[C@H]1CC(=O)c1cc(OC(=O)c3ccccc3)ccc12`, the IC50 was 28 nM on Glucocorticoid receptor [1] and 1.7 nM on Glucocorticoid receptor [2].
